Laboratory results reported in ChEMBL document CHEMBL5528035, “Design, Synthesis, and Biological Evaluation for First GPX4 and CDK Dual Inhibitors” (J Med Chem, 2024).

Legend:
[1] = biological target: CDK2/Cyclin A2 (Homo sapiens) (UniProt P24941+P20248); experiment: Inhibition of CDK2/CyclinA2 (unknown origin) at 100 nM preincubated for 15 mins followed by substrate and ATP addition incubated for 10 mins by ADP-glo luminescent assay relative to control; assay type: protein-complex assay; details: time 25.0 min
[2] = biological target: CDK6/cyclin D3 (Homo sapiens) (UniProt P30281+Q00534); experiment: Inhibition of CDK6/CyclinD3 (unknown origin) at 100 nM preincubated for 15 mins followed by substrate and ATP addition incubated for 10 mins by ADP-glo luminescent assay relative to control; assay type: protein-complex assay; details: time 25.0 min
[3] = tested on: MDA-MB-231; experiment: cells; details: Homo sapiens, MDA-MB-231, 48 h
Description: Antiproliferative activity against human MDA-MB-231 cells assessed as inhibition of cell growth incubated for 48 hrs by CCK-8 assay

[4] = tested on: HCT-116; experiment: cells; details: Homo sapiens, HCT-116, 48 h
Description: Antiproliferative activity against human HCT-116 cells assessed as inhibition of cell growth incubated for 48 hrs by CCK-8 assay

[5] = tested on: A549; experiment: cells; details: Homo sapiens, A549, 48 h
Description: Antiproliferative activity against human A549 cells assessed as inhibition of cell growth incubated for 48 hrs by CCK-8 assay

[6] = tested on: HepG2; experiment: cells; details: Homo sapiens, HepG2, 48 h
Description: Antiproliferative activity against human HepG2 cells assessed as inhibition of cell growth incubated for 48 hrs by CCK-8 assay

[7] = Half life in human liver microsomes in presence of NADPH incubated for 5 to 45 mins by LC/MS analysis; assay type: ADME, Microsome; details: time 5-45 min
[8] = Intrinsic clearance in human liver microsomes in presence of NADPH incubated for 5 to 45 mins by LC/MS analysis; assay type: ADME, Microsome; details: time 5-45 min, read-out: CLH
[9] = Half life in Sprague-Dawley rat at 10 mg/kg,iv administration measured upto 24 hrs by LC-MS/MS analysis; assay type: ADME, organism-based; details: in vivo
[10] = Tmax in Sprague-Dawley rat at 10 mg/kg,iv administration measured upto 24 hrs by LC-MS/MS analysis; assay type: ADME, organism-based; details: in vivo
[11] = Cmax in Sprague-Dawley rat at 10 mg/kg,iv administration measured upto 24 hrs by LC-MS/MS analysis; assay type: ADME, organism-based; details: in vivo
[12] = AUC (0 to t) in Sprague-Dawley rat at 10 mg/kg,iv administration measured upto 24 hrs by LC-MS/MS analysis; assay type: ADME, organism-based; details: in vivo
[13] = MRT (0 to t) in Sprague-Dawley rat at 10 mg/kg,iv administration measured upto 24 hrs by LC-MS/MS analysis; assay type: ADME, organism-based; details: in vivo
[14] = Clearance in Sprague-Dawley rat at 10 mg/kg,iv administration measured upto 24 hrs by LC-MS/MS analysis; assay type: ADME, organism-based; details: in vivo
[15] = tested on: MDA-MB-231; experiment: Antitumor activity against human MDA-MB-231 cells xenografted in BALB/c mouse assessed as tumor growth inhibition at 40 mg/kg,ip administrated for 21 consecutive days; assay type: functional; details: read-out: TGI

Row | inhibition [1] | inhibition [2] | IC50 [3] | IC50 [4] | IC50 [5] | IC50 [6] | half-life [7] | CLint scaled [8] | half-life [9] | Tmax [10] | Cmax [11] | AUC(0-t) at 24 h [12] | MRT last at 24 h [13] | clearance [14] | SMILES | inhibition in vivo at 40 mg/kg [15]
1 | 14% | 12.8% | > 10 µM | > 10 µM | > 10 µM | > 10 µM |  |  |  |  |  |  |  |  | O=C(CCn1cc(COc2ccc(N(C(=O)CCl)C(C(=O)NCCc3ccccc3)c3cccs3)cc2Cl)nn1)NCCCO/N=C1/C(=C2/C(=O)Nc3cc(Cl)c(Cl)cc32)Nc2ccccc21 (stereo unspecified) | 
2 | 15.5% | 21.3% | > 10 µM | 8.77 µM | > 10 µM | > 10 µM |  |  |  |  |  |  |  |  | O=C(CCn1cc(COc2ccc(N(C(=O)CCl)C(C(=O)NCCc3ccccc3)c3cccs3)cc2Cl)nn1)NCCCO/N=C1/C(=C2/C(=O)Nc3ccc(Br)cc32)Nc2ccccc21 (stereo unspecified) | 
3 |  |  | 2.27 µM | 4.14 µM | 2.09 µM | 3.71 µM | 0.6 min | 2680 mL/min/kg | 102 min | 48 min | 8530 ng/mL | 8020 ng·h/mL | 1.8 h | 20.8 mL/min/kg | COc1ccc(N(C(=O)CCl)C(C(=O)NCCc2ccccc2)c2cccs2)cc1Cl (stereo unspecified) | 60.9%
4 | 5.9% | 10.4% | > 10 µM | > 10 µM | > 10 µM | > 10 µM |  |  |  |  |  |  |  |  | O=C(CCn1cc(COc2ccc(N(C(=O)CCl)C(C(=O)NCCc3ccccc3)c3cccs3)cc2Cl)nn1)O/N=C1/C(=C2/C(=O)Nc3ccccc32)Nc2cc(Cl)c(Cl)cc21 (stereo unspecified) | 
5 | 8.89% | 46.3% | 7.89 µM | 7.45 µM | 7.72 µM | 8.18 µM |  |  |  |  |  |  |  |  | O=C(CCn1cc(COc2ccc(N(C(=O)CCl)C(C(=O)NCCc3ccccc3)c3cccs3)cc2Cl)nn1)O/N=C1/C(=C2/C(=O)Nc3ccccc32)Nc2ccccc21 (stereo unspecified) | 
6 | 19.6% | 21.4% | 3.24 µM | 4.25 µM | 6.37 µM | 5.58 µM |  |  |  |  |  |  |  |  | O=C(CCn1cc(COc2ccc(N(C(=O)CCl)C(C(=O)NCCc3ccccc3)c3cccs3)cc2Cl)nn1)O/N=C1/C(=C2/C(=O)Nc3ccccc32)Nc2ccc(F)cc21 (stereo unspecified) | 
7 | 4.02% | 4.65% | > 10 µM | > 10 µM | > 10 µM | > 10 µM |  |  |  |  |  |  |  |  | O=C(CCn1cc(COc2ccc(N(C(=O)CCl)C(C(=O)NCCc3ccccc3)c3cccs3)cc2Cl)nn1)NCCCO/N=C1/C(=C2/C(=O)Nc3cc(Br)c(Br)cc32)Nc2ccccc21 (stereo unspecified) | 
8 | 1.46% | 9.29% | > 10 µM | > 10 µM | > 10 µM | > 10 µM |  |  |  |  |  |  |  |  | O=C(CCn1cc(COc2ccc(N(C(=O)CCl)C(C(=O)NCCc3ccccc3)c3cccs3)cc2Cl)nn1)O/N=C1/C(=C2/C(=O)Nc3ccccc32)Nc2cc(Br)c(Br)cc21 (stereo unspecified) | 
9 | 9.85% | 29.7% | 7.12 µM | 6.81 µM | 6.69 µM | 8.19 µM |  |  |  |  |  |  |  |  | O=C(CCn1cc(COc2ccc(N(C(=O)CCl)C(C(=O)NCCc3ccccc3)c3cccs3)cc2Cl)nn1)O/N=C1/C(=C2/C(=O)Nc3ccccc32)Nc2cc(F)ccc21 (stereo unspecified) | 
10 | 12.6% | 47% | 3.88 µM | 4.03 µM | 4.6 µM | 7.88 µM |  |  |  |  |  |  |  |  | COc1ccc2c(c1)NC(=C1\C(=O)Nc3ccccc31)/C2=N/OC(=O)CCn1cc(COc2ccc(N(C(=O)CCl)C(C(=O)NCCc3ccccc3)c3cccs3)cc2Cl)nn1 (stereo unspecified) | 
11 | 8.53% | 37.1% | 7.78 µM | 7.32 µM | 6.27 µM | 7.51 µM |  |  |  |  |  |  |  |  | O=C(CCn1cc(COc2ccc(N(C(=O)CCl)C(C(=O)NCCc3ccccc3)c3cccs3)cc2Cl)nn1)O/N=C1/C(=C2/C(=O)Nc3ccccc32)Nc2cc(Cl)ccc21 (stereo unspecified) | 
12 | 14.1% | 22% | 4.65 µM | 6.97 µM | 7.04 µM | 8.36 µM |  |  |  |  |  |  |  |  | COc1ccc2c(c1)C(=N\OC(=O)CCn1cc(COc3ccc(N(C(=O)CCl)C(C(=O)NCCc4ccccc4)c4cccs4)cc3Cl)nn1)/C(=C1/C(=O)Nc3ccccc31)N2 (stereo unspecified) | 
13 | 31% | 38.5% | 7.46 µM | 7.17 µM | 9.09 µM | 9 µM |  |  |  |  |  |  |  |  | O=C(CCn1cc(COc2ccc(N(C(=O)CCl)C(C(=O)NCCc3ccccc3)c3cccs3)cc2Cl)nn1)NCCCO/N=C1/C(=C2/C(=O)Nc3cc(Cl)ccc32)Nc2ccccc21 (stereo unspecified) | 
14 | 28.9% | 36.8% | 3.96 µM | 2.91 µM | 6.6 µM | 4.12 µM |  |  |  |  |  |  |  |  | O=C(CCn1cc(COc2ccc(N(C(=O)CCl)C(C(=O)NCCc3ccccc3)c3cccs3)cc2Cl)nn1)NCCCO/N=C1/C(=C2/C(=O)Nc3cc(F)ccc32)Nc2ccccc21 (stereo unspecified) | 
15 | 3.17% | 36.2% | 1.64 µM | 1.99 µM | 1.88 µM | 4.92 µM |  |  |  |  |  |  |  |  | O=C(CCn1cc(COc2ccc(N(C(=O)CCl)C(C(=O)NCCc3ccccc3)c3cccs3)cc2Cl)nn1)NCCCO/N=C1/C(=C2/C(=O)Nc3ccc(F)cc32)Nc2ccccc21 (stereo unspecified) | 
16 | 1.12% | 16.1% | > 10 µM | 9.63 µM | 8.32 µM | > 10 µM |  |  |  |  |  |  |  |  | O=C(CCn1cc(COc2ccc(N(C(=O)CCl)C(C(=O)NCCc3ccccc3)c3cccs3)cc2Cl)nn1)NCCCO/N=C1/C(=C2/C(=O)Nc3cc(F)c(F)cc32)Nc2ccccc21 (stereo unspecified) | 
17 | 28.1% | 39.4% | 5.65 µM | 4.25 µM | 2.67 µM | 4.83 µM |  |  |  |  |  |  |  |  | O=C(CCn1cc(COc2ccc(N(C(=O)CCl)C(C(=O)NCCc3ccccc3)c3cccs3)cc2Cl)nn1)NCCCO/N=C1/C(=C2/C(=O)Nc3ccc(Cl)cc32)Nc2ccccc21 (stereo unspecified) | 
18 | 13.3% | 34.9% | > 10 µM | > 10 µM | > 10 µM | > 10 µM |  |  |  |  |  |  |  |  | O=C(CCn1cc(COc2ccc(N(C(=O)CCl)C(C(=O)NCCc3ccccc3)c3cccs3)cc2Cl)nn1)O/N=C1/C(=C2/C(=O)Nc3ccccc32)Nc2ccc(Br)cc21 (stereo unspecified) | 
19 | 22.4% | 28.3% | 8.69 µM | > 10 µM | > 10 µM | > 10 µM |  |  |  |  |  |  |  |  | O=C(CCn1cc(COc2ccc(N(C(=O)CCl)C(C(=O)NCCc3ccccc3)c3cccs3)cc2Cl)nn1)NCCCO/N=C1/C(=C2/C(=O)Nc3cc(Br)ccc32)Nc2ccccc21 (stereo unspecified) | 
20 | 22.1% | 52.1% | 1.2 µM | 1.49 µM | 2.85 µM | 2.02 µM |  |  |  |  |  |  |  |  | O=C(CCn1cc(COc2ccc(N(C(=O)CCl)C(C(=O)NCCc3ccccc3)c3cccs3)cc2Cl)nn1)NCCCO/N=C1/C(=C2/C(=O)Nc3ccccc32)Nc2ccccc21 (stereo unspecified) | 
21 | 5.41% | 14.7% | > 10 µM | > 10 µM | > 10 µM | > 10 µM |  |  |  |  |  |  |  |  | O=C(CCn1cc(COc2ccc(N(C(=O)CCl)C(C(=O)NCCc3ccccc3)c3cccs3)cc2Cl)nn1)O/N=C1/C(=C2/C(=O)Nc3ccccc32)Nc2cc(Br)ccc21 (stereo unspecified) | 
22 | 26.6% | 40% | 2.01 µM | 1.96 µM | 4.09 µM | 4.66 µM |  |  |  |  |  |  |  |  | COc1ccc2c(c1)/C(=C1/Nc3ccccc3/C1=N\OCCCNC(=O)CCn1cc(COc3ccc(N(C(=O)CCl)C(C(=O)NCCc4ccccc4)c4cccs4)cc3Cl)nn1)C(=O)N2 (stereo unspecified) | 
23 | 10.5% | 24.4% | > 10 µM | > 10 µM | > 10 µM | > 10 µM |  |  |  |  |  |  |  |  | O=C(CCn1cc(COc2ccc(N(C(=O)CCl)C(C(=O)NCCc3ccccc3)c3cccs3)cc2Cl)nn1)O/N=C1/C(=C2/C(=O)Nc3ccccc32)Nc2cc(F)c(F)cc21 (stereo unspecified) | 
24 | 13.5% | 40.4% | 5.25 µM | 4.44 µM | 5.15 µM | 7.16 µM |  |  |  |  |  |  |  |  | O=C(CCn1cc(COc2ccc(N(C(=O)CCl)C(C(=O)NCCc3ccccc3)c3cccs3)cc2Cl)nn1)O/N=C1/C(=C2/C(=O)Nc3ccccc32)Nc2ccc(Cl)cc21 (stereo unspecified) | 
